Source: the supplement of paper PMC10307832

What was measured:
Assay in all cases: relative viability (nuclei count vs DMSO), 5 days (fraction); higher = more cells survive
[1] = tested on: NCI-H1395
In short: (§1)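 Nuclei were stained with Hoechst during a one-step fixation (final 0.05% Triton X-100, 1% formaldehyde, 1 ug/ml Hoechst) carried out 5 days after dosing, then counted on 4× images. The cells, lung cancer lines in 1536-well plates, had been dosed by pin tool the day after seeding with one drug alone or a fixed anchor-drug dose plus five library-drug doses (not always all listed) in √10 steps. Relative viability is the nuclei count in treated wells divided by that in vehicle wells, and each value is the median of duplicate plates.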

[2] = tested on: NCI-H1437
In short: as §1

[3] = tested on: NCI-H1666
In short: as §1

[4] = tested on: NCI-H1975
In short: as §1

[5] = tested on: NCI-H2085
In short: as §1

[6] = tested on: NCI-H2087
In short: as §1

[7] = tested on: NCI-H2126
In short: as §1

[8] = tested on: NCI-H2342
In short: as §1

[9] = tested on: NCI-H358
In short: as §1

[10] = tested on: NCI-H647
In short: as §1

[11] = tested on: PC-3 [JPC-3]
In short: as §1

[12] = tested on: SW 1573
In short: as §1

## COc1cc(N2CCC(C(N)=O)CC2)ccc1Nc1nc(N)c(Cl)c(Nc2ccccc2S(=O)(=O)C(C)C)n1 [HG-5-88-01] + Cc1nc(Nc2ncc(C(=O)Nc3c(C)cccc3Cl)s2)cc(N2CCN(CCO)CC2)n1 [Dasatinib] (partner 0.075 µM)
[1]; first compound 1.265 µM
  relative viability: 0.394
[1]; first compound 4 µM
  relative viability: 0.36
[2]; first compound 0.04 µM
  relative viability: 0.411
[2]; first compound 0.1265 µM
  relative viability: 0.306
[2]; first compound 0.4 µM
  relative viability: 0.231
[2]; first compound 1.265 µM
  relative viability: 0.234
[2]; first compound 4 µM
  relative viability: 0.267
[3]; first compound 0.04 µM
  relative viability: 0.873
[3]; first compound 0.1265 µM
  relative viability: 0.837
[3]; first compound 0.4 µM
  relative viability: 0.643
[3]; first compound 1.265 µM
  relative viability: 0.539
[3]; first compound 4 µM
  relative viability: 0.389
[4]; first compound 0.04 µM
  relative viability: 0.358
[4]; first compound 0.1265 µM
  relative viability: 0.352
[4]; first compound 0.4 µM
  relative viability: 0.284
[4]; first compound 1.265 µM
  relative viability: 0.217
[4]; first compound 4 µM
  relative viability: 0.145
[5]; first compound 0.04 µM
  relative viability: 0.296
[5]; first compound 0.1265 µM
  relative viability: 0.242
[5]; first compound 0.4 µM
  relative viability: 0.24
[5]; first compound 1.265 µM
  relative viability: 0.186
[5]; first compound 4 µM
  relative viability: 0.163
[6]; first compound 0.04 µM
  relative viability: 0.826
[6]; first compound 0.1265 µM
  relative viability: 0.787
[6]; first compound 0.4 µM
  relative viability: 0.601
[6]; first compound 1.265 µM
  relative viability: 0.389
[6]; first compound 4 µM
  relative viability: 0.167
[7]; first compound 0.04 µM
  relative viability: 0.617
[7]; first compound 0.1265 µM
  relative viability: 0.565
[7]; first compound 0.4 µM
  relative viability: 0.449
[7]; first compound 1.265 µM
  relative viability: 0.34
[7]; first compound 4 µM
  relative viability: 0.259
[8]; first compound 0.04 µM
  relative viability: 0.281
[8]; first compound 0.1265 µM
  relative viability: 0.336
[8]; first compound 0.4 µM
  relative viability: 0.308
[8]; first compound 1.265 µM
  relative viability: 0.307
[8]; first compound 4 µM
  relative viability: 0.268
[9]; first compound 0.04 µM
  relative viability: 0.142
[9]; first compound 0.1265 µM
  relative viability: 0.153
[9]; first compound 0.4 µM
  relative viability: 0.164
[9]; first compound 1.265 µM
  relative viability: 0.11
[9]; first compound 4 µM
  relative viability: 0.138
[10]; first compound 0.04 µM
  relative viability: 0.162
[10]; first compound 0.1265 µM
  relative viability: 0.216
[10]; first compound 0.4 µM
  relative viability: 0.114
[10]; first compound 1.265 µM
  relative viability: 0.0855
[10]; first compound 4 µM
  relative viability: 0.112
[11]; first compound 0.04 µM
  relative viability: 1.03
[11]; first compound 0.1265 µM
  relative viability: 0.982
[11]; first compound 0.4 µM
  relative viability: 0.902
[11]; first compound 1.265 µM
  relative viability: 0.936
[11]; first compound 4 µM
  relative viability: 0.814
[12]; first compound 0.04 µM
  relative viability: 0.425
[12]; first compound 0.1265 µM
  relative viability: 0.426
[12]; first compound 0.4 µM
  relative viability: 0.353
[12]; first compound 1.265 µM
  relative viability: 0.279
[12]; first compound 4 µM
  relative viability: 0.266
